Measurements: patent US20160158307A1, “Potent and Efficient Cytotoxic Peptides and Antibody-Drug Conjugates thereof and Their Synthesis” (priority 2014, published 2016)
Numbered stars: 1 amine (or outer) side, 2 acyl side, 3 side chain; on linkers, the order of the positions; unused ones are H or OH. Square brackets hold non-standard residues; d marks the D form. Peptide text beside a SMILES is read from it. * marks the point of attachment. Butanoyl(3R-OMe,4S-NMe,4-Cy) = CO[C@H](CC(=O)[*:2])[C@H](C1CCCCC1)N(C)[*:1]; Dolaproine = CO[C@@H]([C@@H]1CCCN1)[C@@H](C)C(=O)O; X2 = CO[C@H](CC(=O)[*:2])[C@H](C1CCCC1)N(C)[*:1]; Dil = CC[C@H](C)[C@H](NC)[C@@H](CC(=O)O)OC; X1 = C[C@@H](N*)[C@@H](O)c1ccccc1; NMeV = CN[C@H](C(=O)O)C(C)C; Aib = CC(C)(N)C(=O)O; OtBu = CC(C)(C)O*

How the values were obtained:
Type in all cases: cell-based, Human
[1] = system: A549; test: In vitro cell assay (Cell Titer Glo), A549
Protocol: (§1) In vitro cell assay is performed in a 96 well micro titer plate. Human tumor cell lines Hela, A549, MCF-7, HCC-1954 and SK-BR-3 are obtained from ATCC (American Type Culture Collection).
The cells were harvested respectively during the logarithmic growth period and counted with hemocytometer. The cell viability was over 98% by trypan blue exclusion. 90 μl of cell suspensions were added in to 96-well plates, the final cell density was reached to 3000 cells/well. […]
(§2) To each well was added 10 μL, of DMSO diluted compound (10×). For the sentinel base T0 plate, to each well was added 100 μL Cell Titer Gloand the luminescence signals with Envision reading were recorded.
(§3) […] Plates are read with Envision after adding Cell Titer Glo to each well. IC50 values were calculated using GraphPad Prism 5.

[2] = system: Hela; test: In vitro cell assay (Cell Titer Glo), Hela; conditions: 6 days exposure
Protocol: as §1
The cells were harvested respectively during the logarithmic growth period and counted with hemocytometer. The cell viability was over 98% by trypan blue exclusion. 90 μl of cell suspensions were added in to 96-well plates, the final cell density was reached to 3000 cells/well. Plates were incubated for 96 hours at 37° C., and 5% CO2.
as §2, §3

[3] = system: SK-BR-3; test: In vitro cell assay (Cell Titer Glo), SK-BR-3; conditions: 6 days exposure
Protocol: as §1
(§4) The cells were harvested respectively during the logarithmic growth period and counted with hemocytometer. […] 90 μl of cell suspensions were added in to 96-well plates, the final cell density was reached to 3000 cells/well. Plates were incubated for 96 hours at 37° C., and 5% CO2.
as §2, §3

[4] = system: MCF-7; test: In vitro cell assay (Cell Titer Glo), MCF-7
Protocol: as §1, §4, §2, §3

[5] = system: HCC1954; test: In vitro cell assay (Cell Titer Glo), HCC1954; conditions: 6 days exposure
Protocol: as §1
The cells were harvested respectively during the logarithmic growth period and counted with hemocytometer. […] 90 μl of cell suspensions were added in to 96-well plates, the final cell density was reached to 3000 cells/well. […]
as §2, §3

[6] = Homo sapiens, HeLa, 144 h, Table 01
[7] = Homo sapiens, SK-BR-3, 144 h, Table 01
[8] = Homo sapiens, HCC1954, 144 h, Table 01
[9] = Table 3, payloads and related ADCs, Her2 positive
[10] = Homo sapiens, HeLa, 144 h, Table 2
[11] = Homo sapiens, SK-BR-3, 144 h, Table 2
[12] = Homo sapiens, HCC1954, 144 h, Table 2

| SMILES | IC50 ([1]; Homo sapiens, A549, Table 01) [nM] | IC50 [2, 6] [nM] | IC50 [3, 7] [nM] | IC50 ([4]; Homo sapiens, MCF7, Table 01) [nM] | IC50 [5, 8] [nM] | IC50 ([1]; Homo sapiens, A549, Table 2) [nM] | IC50 [2, 10] [nM] | IC50 [3, 11] [nM] | IC50 ([4]; Homo sapiens, MCF7, Table 2) [nM] | IC50 [5, 12] [nM] | further results |
| --- | --- | --- | --- | --- | --- | --- | --- | --- | --- | --- | --- |
| CN[C@H](C(=O)N[C@H](C(=O)N(C)[C@@H](C1CCCCC1)[C@@H](CC(=O)N1CCC[C@H]1[C@H](OC)[C@@H](C)C(=O)N[C@H](C)[C@@H](O)c1ccccc1)OC)C(C)C)C(C)C [Compound 34] | 1.67 | 0.391 | 0.333 | 1.44 | 0.192 | – | – | – | – | – | – |
| CC[C@H](C)[C@@H]([C@@H](CC(=O)N1CCC[C@H]1[C@H](OC)[C@@H](C)C(=O)N[C@H](C)[C@@H](O)c1ccccc1)OC)N(C)C(=O)[C@@H](NC(=O)[C@@H](NC)C(C)C)C(C)C [MMAE, monomethylauristatin E, reference compound] (H-[NMeV]V[Dil][Dolaproine]-X1) | – | – | – | – | – | – | – | – | – | – | IC50 ([1]; Table 01, 6 days exposure): 0.518 nM; IC50 ([2]; Table 01): 0.1 nM; IC50 ([3]; Table 01): 0.103 nM; IC50 [3, 9]: 0.103 nM; IC50 ([4]; Table 01, 6 days exposure): 0.321 nM; IC50 ([4]; Table 3, payloads and related ADCs, 6 days exposure, does not over-express Her2): 0.321 nM; IC50 ([5]; Table 01): 0.073 nM; IC50 [5, 9]: 0.073 nM |
| CO[C@H]([C@@H](C)C(=O)N[C@H](C)[C@@H](O)c1ccccc1)[C@@H]1CCCN1C(=O)C[C@@H](OC)[C@H](C1CCCCC1)N(C)C(=O)[C@@H](NC(=O)C(C)(C)N)C(C)C [Compound 18, (S)-2-(2-amino-2-methylpropanamido)-N-((1S,2R)-1-cyclohexyl-4-((S)-2-((1R,2R)-3-((1S,2R)-1-hydroxy-1-phenylpropan-2-ylamino)-1-methoxy-2-methyl-3-oxopropyl)pyrroli-din-1-yl)-2-methoxy-4-oxobutyl)-N,3-dimethylbutanamide] | – | – | – | – | – | 1.14 | 0.478 | 0.805 | 3.19 | 0.466 | – |
| CN[C@H](C(=O)N[C@H](C(=O)N(C)[C@@H](C1CCCC1)[C@@H](CC(=O)N1CCC[C@H]1[C@H](OC)[C@@H](C)C(=O)N[C@@H](Cc1ccccc1)c1nccs1)OC)C(C)C)C(C)C [Compound 35] | 0.68 | 0.102 | 0.191 | 0.914 | 0.119 | – | – | – | – | – | – |
| CN[C@H](C(=O)N[C@H](C(=O)N(C)[C@@H](C1CCCC1)[C@@H](CC(=O)N1CCC[C@H]1[C@H](OC)[C@@H](C)C(=O)N[C@H](C)[C@@H](O)c1ccccc1)OC)C(C)C)C(C)C [Compound 33] | 2.05 | 0.43 | 0.381 | 1.36 | 0.146 | – | – | – | – | – | – |
| N.N.[Cl][Pt][Cl] [Cisplatin, reference compound] | – | – | – | – | – | – | – | – | – | – | IC50 ([1]; Table 01, 6 days exposure): 2830 nM; IC50 ([1]; Table 2, 6 days exposure): 2830 nM; IC50 ([2]; Table 01): 182 nM; IC50 ([2]; Table 2): 182 nM; IC50 ([3]; Table 01): 854 nM; IC50 ([3]; Table 2): 854 nM; IC50 ([4]; Table 01, 6 days exposure): 3550 nM; IC50 ([4]; Table 2, 6 days exposure): 3550 nM; IC50 ([5]; Table 01): 3270 nM; IC50 ([5]; Table 2): 3270 nM |
| CO[C@H]([C@@H](C)C(=O)N[C@@H](Cc1ccccc1)C(=O)OC(C)(C)C)[C@@H]1CCCN1C(=O)C[C@@H](OC)[C@H](C1CCCCC1)N(C)C(=O)[C@@H](NC(=O)C(C)(C)N)C(C)C [Compound 22, (S)-tert-butyl-2-((2R,3R)-3-((S)-1-((3R,4S)-4-((S)-2-(2-amino-2-methylpropanamido)-N, 3-dimethylbutanamido)-4-cyclohexyl-3-methoxybutanoyl)pyrrolidin-2-yl)-3-methoxy-2-methylpropanamido)-3-phenylpropanoate] (H-[Aib]V[Butanoyl(3R-OMe,4S-NMe,4-Cy)][Dolaproine]F-OtBu) | – | – | – | – | – | 1.08 | 0.567 | 0.066 | 0.529 | 0.112 | – |
| CN[C@H](C(=O)N[C@H](C(=O)N(C)[C@@H](C1CCCCC1)[C@@H](CC(=O)N1CCC[C@H]1[C@H](OC)[C@@H](C)C(=O)N[C@@H](Cc1ccccc1)C(=O)OC(C)(C)C)OC)C(C)C)C(C)C [Compound 38] (H-[NMeV]V[Butanoyl(3R-OMe,4S-NMe,4-Cy)][Dolaproine]F-OtBu) | 0.275 | 0.078 | 0.097 | 0.642 | 0.128 | – | – | – | – | – | – |
| CN[C@H](C(=O)N[C@H](C(=O)N(C)[C@@H](C1CCCCC1)[C@@H](CC(=O)N1CCC[C@H]1[C@H](OC)[C@@H](C)C(=O)N[C@@H](Cc1ccccc1)c1nccs1)OC)C(C)C)C(C)C [Compound 36] | 0.567 | 0.143 | 0.197 | 0.841 | 0.103 | – | – | – | – | – | – |
| CN[C@H](C(=O)N[C@H](C(=O)N(C)[C@@H](C1CCCC1)[C@@H](CC(=O)N1CCC[C@H]1[C@H](OC)[C@@H](C)C(=O)N[C@@H](Cc1ccccc1)C(=O)OC(C)(C)C)OC)C(C)C)C(C)C [Compound 37] (H-[NMeV]V[X2][Dolaproine]F-OtBu) | 0.863 | 0.198 | 0.118 | 0.456 | 0.095 | – | – | – | – | – | – |
| CO[C@H]([C@@H](C)C(=O)N[C@@H](Cc1ccccc1)c1nccs1)[C@@H]1CCCN1C(=O)C[C@@H](OC)[C@H](C1CCCCC1)N(C)C(=O)[C@@H](NC(=O)C(C)(C)N)C(C)C [Compound 24, (S)-2-(2-amino-2-methylpropanamido)-N-((1S,2R)-1-cyclohexyl-2-methoxy-4-((S)-2-((1R,2R)-1-methoxy-2-methyl-3-oxo-3-((S)-2-phenyl-1-(thiazol-2-yl)ethylamino)propyl)pyrrolidin-1-yl)-4-oxobutyl)-N,3-dimethylbutanamide] | – | – | – | – | – | 3.34 | 0.571 | 0.524 | 1.99 | 0.31 | – |
| CO[C@H]([C@@H](C)C(=O)N[C@H](C)[C@@H](O)c1ccccc1)[C@@H]1CCCN1C(=O)C[C@@H](OC)[C@H](C1CCCC1)N(C)C(=O)[C@@H](NC(=O)C(C)(C)N)C(C)C [Compound 17, (S)-2-(2-amino-2-methylpropanamido)-N-((1S,2R)-1-cyclopentyl-4-((S)-2-((1R,2R)-3-((1S,2R)-1-hydroxy-1-phenylpropan-2-ylamino)-1-methoxy-2-methyl-3-oxopropyl)pyrrolidin-1-yl)-2-methoxy-4-oxobutyl)-N,3-dimethylbutanamide] | – | – | – | – | – | 6.32 | 1.56 | 0.839 | 4.75 | 0.623 | – |
| CO[C@H]([C@@H](C)C(=O)N[C@@H](Cc1ccccc1)c1nccs1)[C@@H]1CCCN1C(=O)C[C@@H](OC)[C@H](C1CCCC1)N(C)C(=O)[C@@H](NC(=O)C(C)(C)N)C(C)C [Compound 23] | – | – | – | – | – | 2.83 | 0.484 | 0.693 | 2.9 | 0.405 | – |
| CO[C@H]([C@@H](C)C(=O)N[C@@H](Cc1ccccc1)C(=O)OC(C)(C)C)[C@@H]1CCCN1C(=O)C[C@@H](OC)[C@H](C1CCCC1)N(C)C(=O)[C@@H](NC(=O)C(C)(C)N)C(C)C [Compound 21, (S)-tert-butyl2-((2R,3R)-3-((S)-1-((3R,4S)-4-((S)-2-(2-amino-2-methylpropanamido)-N,3-dimethylbutanamido)-4-cyclopentyl-3-methoxybutanoyl)pyrrolidin-2-yl)-3-methoxy-2-methylpropanamido)-3-phenylpropanoate] (H-[Aib]V[X2][Dolaproine]F-OtBu) | – | – | – | – | – | 1.13 | 0.563 | 0.223 | 1.3 | 0.296 | – |
